US10494338B2, “Prostaglandin derivative” (AGC INC., priority 2016, dated 2019)

Tested on: rat platelet aggregation
Assay: Inhibitory action on rat platelet aggregation in vitro (ADP-induced, platelet-rich plasma)
Format: cell-based
Details: SD rat PRP, ADP 2 μmol/L; relative activity from IC50, activity of IC50 value of PGE1 = 100
Method: Experimental Example 2: Evaluation of Inhibitory Action on Rat Platelet Aggregation In Vitro (1) Preparation of Rat Platelet-Rich Plasma In the same manner as in the above-mentioned Experimental Example 1(1), blood samples were collected from the abdominal artery of 8- to 9-week-old male SD rats. PRP was diluted with PPP and the number of platelet was adjusted to 63.2×10^4/μL. (2) Measurement of Platelet Aggregation Ability In the same manner as in the above-mentioned Experimental Example 1(2) except that the final concentration of ADP was 2 μmol/L, the compound of the present invention, prostaglandin E1 (PGE1:positive control substance) or vehicle control was added as a test substance, and the maximum response of aggregation was measured. (3) Evaluation of Platelet Aggregation Inhibitory Action In the same manner as in the above-mentioned Experimental Example 1(3), IC50 values were determined from the aggregation inhibition ratio of the test substance, and the relative activity (%) of each test substance was calculated by defining the activity of IC50 value of PGE1 as 100.

Row | SMILES | Relative activity (%)
1 | CCCCC[C@H](O)/C=C/[C@H]1[C@H](O)CC(=O)[C@@H]1CCCCCCC(=O)O [PGE1, prostaglandin E1, reference compound] | 100
2 | CCC#CC[C@H](C)C(O)/C=C/[C@H]1[C@H](O)CC(=O)[C@@H]1CCCCCCC(=O)OC (stereo partly drawn) [compound (1)-3, methyl ((1R,2R,3R)-3-hydroxy-2-((1E,3RS,4S)-3-hydroxy-4-methylnon-1-en-6-yn-1-yl)-5-oxocyclopentyl)heptanoate] | 2175
3 | CCC#CC[C@H](C)[C@H](O)/C=C/[C@H]1[C@H](O)CC(=O)[C@@H]1CCCCCC(F)(F)C(=O)O [compound (1)-8, 2,2-difluoro-7-((1R,2R,3R)-3-hydroxy-2-((1E,3S,4S)-3-hydroxy-4-methylnon-1-en-6-yn-1-yl)-5-oxocyclopentyl)heptanoic acid] | 817
